Measured values taken from patent publication US20230157998A1, “Methods of Inhibiting SARS-CoV-2 Replication and Treating Corona Virus Disease 2019” (Pfizer Inc., priority 2020, published 2023).
In brackets after ≈: the same amount, converted by molar mass. Where two headings read alike, the source gives them in different places.

How the values were obtained:
[1] = physchem; details: 4 °C, thermodynamic from solid
[2] = physchem; details: 25 °C, aqueous with cosolvent or surfactant or cyclodextrin, thermodynamic from solid
[3] = biological target: NL63-CoV 3CLpro (Human coronavirus NL63, UniProt P0C6X5); assay: FRET protease activity assay; format: biochemical; details: Alpha-CoV; [E]T 170 ± 4 nM
NL63-CoV 3CLpro, sequence (P0C6X5 2940-3242): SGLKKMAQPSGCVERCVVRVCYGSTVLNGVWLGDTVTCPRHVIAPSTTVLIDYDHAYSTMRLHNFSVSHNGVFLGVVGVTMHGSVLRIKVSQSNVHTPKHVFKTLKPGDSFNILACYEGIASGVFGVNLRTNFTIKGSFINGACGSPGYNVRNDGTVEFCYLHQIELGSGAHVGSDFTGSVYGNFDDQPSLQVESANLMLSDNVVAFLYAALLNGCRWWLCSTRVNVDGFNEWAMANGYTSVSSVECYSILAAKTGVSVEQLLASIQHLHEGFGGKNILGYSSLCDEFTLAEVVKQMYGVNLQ

[4] = Ethanol […] v/v, 2 mg/mL at preparation
[5] = Plasma protein binding by equilibrium dialysis
[6] = system: SARS-CoV-2 USA-WA1/2020; assay: In vitro drug efficacy in A549+ACE2 cells; format: cell-based
[7] = biological target: HKU1-CoV 3CLpro (Human coronavirus HKU1, UniProt P0C6X2); assay: FRET protease activity assay; format: biochemical; details: Beta-CoV; [E]T 57 ± 1 nM
HKU1-CoV 3CLpro, sequence (P0C6X2 3335-3637): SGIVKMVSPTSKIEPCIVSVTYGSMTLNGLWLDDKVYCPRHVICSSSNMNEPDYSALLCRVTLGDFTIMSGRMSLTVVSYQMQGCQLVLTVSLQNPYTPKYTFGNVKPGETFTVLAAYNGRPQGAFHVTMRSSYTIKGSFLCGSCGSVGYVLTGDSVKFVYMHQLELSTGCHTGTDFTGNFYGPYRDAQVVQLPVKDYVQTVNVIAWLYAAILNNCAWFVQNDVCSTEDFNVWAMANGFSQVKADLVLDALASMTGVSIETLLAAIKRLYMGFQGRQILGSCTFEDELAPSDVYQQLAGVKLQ

[8] = system: VeroE6-enACE2 cells; details: African green monkey
[9] = system: CYP3A4/5; details: microsomes
[10] = system: SARS-CoV-2; assay: microbe, parasite or virus in culture
[11] = physchem; details: organic solvent or mixture, thermodynamic from solid
[12] = system: SARS-CoV-2 (USA_WA1/2020); details: for synergy score: isobologram level 0.9
[13] = system: SARS-CoV-2 Washington strain 1; assay: Cytopathic effect (CPE) assay in VeroE6-enACE2 cells; format: cell-based
[14] = biological target: Human Elastase (Homo sapiens, UniProt P08246); assay: Protease panel; format: biochemical
Human Elastase, sequence (P08246 30-247): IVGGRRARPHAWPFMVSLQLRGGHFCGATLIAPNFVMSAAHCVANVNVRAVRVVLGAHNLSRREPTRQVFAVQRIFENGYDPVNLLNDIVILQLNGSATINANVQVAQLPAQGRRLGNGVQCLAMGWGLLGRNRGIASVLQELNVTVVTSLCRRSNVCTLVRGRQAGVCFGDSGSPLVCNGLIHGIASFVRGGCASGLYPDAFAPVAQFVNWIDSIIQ

[15] = physchem; details: 25 °C, organic solvent or mixture, thermodynamic from solid
[16] = ~1 mg/mL, 5% v/v co-solvent, pH 4 or 5, with or without 15 mg/mL SBE-β-CD, up to 7 days, all samples
[17] = biological target: SARS-CoV-2 3CLpro (Severe acute respiratory syndrome coronavirus 2, UniProt P0DTD1); assay: Thermal-shift assay; details: n=8; 55.9+/−[…] C. (n=16) without compound
[18] = biological target: OC43-CoV 3CLpro (Human coronavirus OC43, UniProt P0C6X6); assay: FRET protease activity assay; format: biochemical; details: Beta-CoV; [E]T 52 ± 1 nM
OC43-CoV 3CLpro, sequence (P0C6X6 3247-3549): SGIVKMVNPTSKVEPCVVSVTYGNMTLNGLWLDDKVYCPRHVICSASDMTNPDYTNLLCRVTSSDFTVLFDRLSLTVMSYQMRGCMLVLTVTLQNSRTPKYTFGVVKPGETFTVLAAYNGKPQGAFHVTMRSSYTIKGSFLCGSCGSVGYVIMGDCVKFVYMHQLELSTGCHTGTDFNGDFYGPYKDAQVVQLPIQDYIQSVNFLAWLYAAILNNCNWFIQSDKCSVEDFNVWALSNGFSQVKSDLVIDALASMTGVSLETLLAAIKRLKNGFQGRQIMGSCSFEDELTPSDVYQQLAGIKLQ

[19] = system: Human Chymotrypsin; assay: Protease panel; format: biochemical
[20] = biological target: Human Cathepsin B (Homo sapiens, UniProt P07858); assay: Protease panel; format: biochemical
[21] = system: SARS-CoV-2; assay: Efficacious target concentration and human dose projection; details: across a range of in vitro antiviral assays
[22] = Saturated solubility in CD/water mixtures with polymeric excipients (F6); details: 25° C., pH 5, HP-β-CD 15 mg/mL
[23] = system: cytochrome P450 enzymes; details: human, microsomes
[24] = human
[25] = 48 h
[26] = in vitro; details: human
[27] = physchem; details: 25 °C, pH 5, aqueous buffer, thermodynamic from solid, PF-00835321 Saturated Solubility
[28] = system: MRC-5 cells; assay: Cytotoxicity in MRC-5 cells; details: read-out: CC50 μM GeoMean; MRC-5, Efflux Inhibitor 0.5 μM
[29] = Cytotoxicity in MRC-5 cells; details: human
[30] = biological target: 229E-CoV-2 3CLpro (Human coronavirus 229E, UniProt P0C6X1); assay: FRET protease activity assay; format: biochemical; details: Alpha-CoV; [E]T 118 ± 3 nM
229E-CoV-2 3CLpro, sequence (P0C6X1 2966-3267): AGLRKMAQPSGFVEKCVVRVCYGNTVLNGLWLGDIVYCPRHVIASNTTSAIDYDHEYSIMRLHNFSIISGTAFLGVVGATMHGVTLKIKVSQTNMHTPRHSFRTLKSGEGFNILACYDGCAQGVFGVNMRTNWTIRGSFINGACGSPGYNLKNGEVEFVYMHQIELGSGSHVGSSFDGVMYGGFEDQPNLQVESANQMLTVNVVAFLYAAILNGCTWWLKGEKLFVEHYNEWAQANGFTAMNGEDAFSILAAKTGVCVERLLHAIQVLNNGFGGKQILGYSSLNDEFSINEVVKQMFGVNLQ

Question: What does the source list for `COc1cccc2[nH]c(C(=O)N[C@@H](CC(C)C)C(=O)N[C@@H](C[C@@H]3CCNC3=O)C(=O)CO)cc12` [PF-00835231]?
Answer: solubility at 48 h ([1]; pH 3, aqueous buffer): 100 µg/mL (≈ 212 µM); solubility at 48 h ([1]; pH 5, aqueous buffer): 100 µg/mL (≈ 212 µM); solubility at 48 h ([1]; pH 7, aqueous buffer): 100 µg/mL (≈ 212 µM); solubility [2]: 1700 µg/mL (≈ 3600 µM); solubility at 48 h [2]: 1900 µg/mL (≈ 4020 µM); solubility at 72 h [2]: 2000 µg/mL (≈ 4230 µM); Ki [3]: 0.8 ± 0.5 nM; PF-00835231 Assay ([4]; HP-β-CD 0 mg/mL, order: PF-00835231, Ethanol, Buffer): 0.4 mg/mL; PF-00835231 Assay ([4]; HP-β-CD 15 mg/mL, order: PF-00835231, Ethanol, HP-β-CD with buffer): 1.9 mg/mL; PF-00835231 Assay ([4]; HP-β-CD 15 mg/mL, order: PF-00835231, HP-β-CD with buffer, Ethanol): 0.4 mg/mL; fraction unbound [5]: 0.26 to 0.46; EC50 ([6]; Severe acute respiratory syndrome coronavirus 2, A549-ACE2, 24 h): 221 nM; EC90 ([6]; Severe acute respiratory syndrome coronavirus 2, A549-ACE2, 24 h, read-out: EC90): 734 nM; EC50 ([6]; Severe acute respiratory syndrome coronavirus 2, A549-ACE2, 48 h): 158 nM; EC90 ([6]; Severe acute respiratory syndrome coronavirus 2, A549-ACE2, 48 h, read-out: EC90): 439 nM; EC90 ([6]; Severe acute respiratory syndrome coronavirus 2, A549-ACE2, dose response assay in human lung carcinoma cells, read-out: average EC90): 440 nM; Ki [7]: 0.9 ± 0.2 nM; CC50 [8]: > 100000 nM; time dependent inhibition of CYP3A4/5 [9]: weak signal; EC90 ([10]; Severe acute respiratory syndrome coronavirus 2, HeLa-ACE2, HELA-ACE2, remdesivir concentration 0): 433 nM; EC90 ([10]; Severe acute respiratory syndrome coronavirus 2, HeLa-ACE2, HELA-ACE2, remdesivir concentration 48 (nm in FIG. 5A legend)): 123 nM; EC90 ([10]; Severe acute respiratory syndrome coronavirus 2, HeLa-ACE2, HELA-ACE2, remdesivir concentration 95 (nm in FIG. 5A legend)): 54.5 nM; EC90 ([10]; Severe acute respiratory syndrome coronavirus 2, HeLa-ACE2, HELA-ACE2, remdesivir concentration 190 (nm in FIG. 5A legend)): < 0.78 nM; solubility [11]: ≥ 200000 µg/mL; cytotoxicity of the combinations [12]: no significant cytotoxicity; synergy score ([12]; combination with azithromycin): 3.76; synergy score ([12]; combination with remdesivir): 5.1; EC50 ([13]; Severe acute respiratory syndrome coronavirus 2, VeroE6-enACE2 cells, in the presence of the P-gp inhibitor, quoted for the EC50/EC90 difference, read-out: EC50): 0.48 µM; EC90 ([13]; Severe acute respiratory syndrome coronavirus 2, Vero-cell lines, P-gp inhibitor added): 480 to 1600 nM; difference between EC50 and EC90 ([13]; both Vero cell types): 2-3 fold; EC50 ([13]; read-out: EC50 μM GeoMean): 0.23 µM; IC50 [14]: > 33300 nM; solubility at 48 h [15]: > 45000 µg/mL; decrease in chromatographic purity at 22° C. [16]: less than 0.5%; melting temperature (Tm) of SARS-CoV-2 3CLpro with compound bound [17]: 70.5+/−0.12 °C; Ki [18]: 0.5 ± 0.1 nM; IC50 [19]: > 100000 nM; margin of activity against human cathepsin B compared to 3CLpro [20]: 1000 fold; Hill coefficient (m), slope of the dose response curve [21]: 3; PF-00835231 Assay ([22]; HPMC 1 mg/mL): 0.4 mg/mL; PF-00835231 Assay ([22]; PEG400 […]): 0.4 mg/mL; PF-00835231 Assay ([22]; PEG3350 […]): 0.4 mg/mL; PF-00835231 Assay ([22]; PVP […]): 0.4 mg/mL; PF-00835231 Assay ([22]; no polymeric excipient): 0.4 mg/mL; unbound CIint [23]: 14 µL/min/mg; predicted half-life [24]: approximately 2 h; predicted plasma clearance (CLp) [24]: ~6 mL/min/kg; PF-00835321 Solubility [25]: >45000 µg/mL; CC50 [26]: > 10000 nM; solubility at 48 h [27]: 200 µg/mL (≈ 423 µM); CC50 [28]: > 100 µM; CC50 [29]: > 100000 nM; Solid Form at 4° C. (pH 3): No Change-Hydrate; Solid Form at 4° C. (pH 5): No Change-Hydrate; Solid Form at 4° C. (pH 7): No Change-Hydrate; Ki [30]: 1.5 ± 0.8 nM
